The text below walks through data of patent US8828930B2, “Hepatitis C virus NS3 protease inhibitors” (Merck Sharp & Dohme Corp., priority 2009, dated 2014).

One data set concerns the target NS3/4A protease gt 3a (Hepatitis C virus genotype 3a, UniProt Q81258). The experiment in a line: HCV NS3 protease time-resolved fluorescence (TRF) assay, NS3/4A inhibitory activity (Ki), gt 3a. It counts as biochemical. Conditions: NS3/4A enzyme. The method, then: (§1) The HCV NS3 protease inhibitory activity of the present compounds may be tested using assays known in the art. One such assay is HCV NS3 protease time-resolved fluorescence (TRF) assay as described below and in WO 2006/102087. Other examples of such assays are described in, for example, WO 2005/046712. HCV NS3 protease inhibitors, such as those described herein have a Ki less than 50 μM, such as less than 10 μM, and less than 100 nM. Ki is determined by an NS3 protease assay. The assay is performed in a final volume of 100 μl in assay buffer containing 50 mM HEPES, pH 7.5, 150 mM NaCl, 15% glycerol, 0.15% TRITON X-100, 10 mM DTT, and 0.1% PEG 8000. NS3 protease is preincubated with various concentrations of inhibitors in DMSO for 30 minutes. The reaction is initiated by adding the TRF peptide substrate (final concentration 100 nM). NS3 mediated hydrolysis of the substrate is quenched after 1 hour at room temperature with 100 μl of 500 mM MES, pH 5.5. Product fluorescence is detected using either a VICTOR V2 or FUSION fluorophotometer (PERKIN ELMER LIFE AND ANALYTICAL SCIENCES) with excitation at 340 nm and emission at 615 nm with a 400 μs delay. Testing concentrations of different enzyme forms are selected to result in a signal to background ratio (SIB) of 10-30. IC50 values are derived using a standard four-parameter fit to the data. Ki values are derived from IC50 values using the following formula, IC50=Ki(1+[S]/KM), Eqn (1), where [S] is the concentration of substrate peptide in the reaction and KM is the Michaelis constant. See Paola Gallinari et al., Modulation of Hepatitis C Virus NS3 Protease and Helicase Activities through the Interaction with NS4A, 38 BIOCHEM. 5620 (1999); Paola Gallinari et al., Multiple Enzymatic Activities Associated with Recombinant NS3 Protein of Hepatitis C Virus, 72(8) J. VIROLOGY 6758 (1998); Mariana Taliani et al., A Continuous Assay of Hepatitis C Virus Protease Based on Resonance Energy Transfer Depsipeptide Substrates, 240 ANAL. BIOCHEM. 60 (1996).
(§2) This NS3 protease assay was performed in a final volume of 100 μl assay buffer containing 50 mM HEPES, pH 7.5, 150 mM NaCl, 15% glycerol, 0.15% TRITON X-100, 10 mM DTT, and 0.1% PEG 8000. NS3/4A protease was pre-incubated with various concentrations of inhibitors in DMSO for 30 minutes. The reaction was initiated by adding the TRF peptide substrate (final concentration 100 nM). NS3 mediated hydrolysis of the substrate was quenched after 1 hour at RT with 100 μl of 500 mM MES, pH 5.5. Product fluorescence was detected using either a V1CTOR V2 or FUSION fluorophotometer (PERKIN ELMER LIFE AND ANALYTICAL SCIENCES) with excitation at 340 nm and emission at 615 nm with a 400 us delay. Testing concentrations of different enzyme forms were selected to result in a signal to background ratio (SIB) of 10-30. IC50 values were derived using a standard four-parameter fit to the data. K, values are derived from IC50 values using the following formula, IC50=Ki(1+[S]/KM), Eqn (1), where [S] is the concentration of substrate peptide in the reaction and KM is the Michaelis constant. See Paola Gallinari et al., Modulation of Hepatitis C Virus NS3 Protease and Helicase Activities through the Interaction with NS4A, 38 BIOCHEM. 5620 (1999); Paola Gallinari et al., Multiple Enzymatic Activities Associated with Recombinant NS3 Protein of Hepatitis C Virus, 72(8) J. VIROLOGY 6758 (1998); Mariana Milani et al., A Continuous Assay of Hepatitis C Virus Protease Based on Resonance Energy Transfer Depsipeptide Substrates, 240 ANAL. BIOCHEM. 60 (1996); Shi-Shan Mao et al., A time-resolved, internally quenched fluorescence assay to characterize inhibition of hepatitis C virus nonstructural protein 3-4A protease at low enzyme concentrations, 373 ANALYTICAL BIOCHEMISTRY 1 (2008). Measuring Compound Inhibitory Potency (Replicon EC50 (nM))

In data set [1] the target is NS3/4A protease gt 1b A156V (Hepatitis C virus genotype 1b, UniProt P26663, A1182V). The experiment in a line: HCV NS3 protease time-resolved fluorescence (TRF) assay, NS3/4A inhibitory activity (Ki), gt 1b A156V. The data set is classed as biochemical. The method, then:
as §1, §2

Data set [2] is described as follows: Plasma and liver concentrations and pharmacokinetics (Rat PK). The data set is classed as in vivo. Also on record: Rat PK 5 mpk AUC: unit not given here. The note with it: for concentration at 4 h: 5 mg/kg, 5 mpk, liver concentration at 4 h; for Rat PK 5 mpk AUC: area under the plasma concentration/time curve. How it is done:
Test compounds were dissolved in a suitable dosing vehicle for i.v. administration (e.g., 20%:60%:20% DMSO:PEG400:H2O) or per oral administration (e.g., 10% POLYSORBATE80:90% H2O or 100% PEG400). Animals were administered (n=2 or 3) using a crossover study design for non-rodents. Plasma samples were collected at time points between 2 minutes and 24 hours, and compound levels were determined by RP-LC/MS/MS. Liver samples were collected post-mortem in rat. Liver samples were weighed, homogenized, and diluted using techniques known to those skilled in the art, and compound levels were determined by RP-LC/MS/MS.
Pharmacokinetic parameters were calculated based on non-compartmental analysis (e.g., using WATSON, WINNOLIN). Predose concentrations that were below the limit of quantitation (BLQ) were assigned a value of 0, Standard pharmacokinetic parameters CLp, Vdss, half-life (only for IV), % F, Cmax, Tmax, AUC0-last, AUC0-infinity were calculated. AUC values were calculated using linear trapezoidal method for ascending concentrations and the log trapezoidal method for descending concentrations.

Another data set deals with NS3/4A protease gt 1b (Hepatitis C virus genotype 1b, UniProt P26663). Kind of data set: HCV NS3 protease time-resolved fluorescence (TRF) assay, NS3/4A inhibitory activity (Ki), gt 1b. The data set is classed as biochemical. Conditions: NS3/4A enzyme. The method, then:
as §1, §2

The next data set relates to HCV gt 1b replicon. Kind of data set: HCV replicon assay, compound inhibitory potency (Replicon EC50). The data set is classed as cell-based. Conditions: Hepatitis C virus, GT1B. How it is done: Measurement of inhibition by compounds was performed using the HCV replicon system. Several different replicons encoding different HCV genotypes or mutations were used. In addition, potency measurements were made using different formats of the replicon assay, including different ways of measurements and different plating formats. See Jan M. Vrolijk et al., A replicon-based bioassay for the measurement of interferons in patients with chronic hepatitis C, 110 J. VIROLOGICAL METHODS 201 (2003); Steven S. Carroll et al., Inhibition of Hepatitis C Virus RNA Replication by 2′-Modified Nucleoside Analogs, 278(14) J. BIOLOGICAL CHEMISTRY 11979 (2003). However, the underlying principles are common to all of these determinations, and are outlined below.
Stable neomycin phosphotransferase encoding replicon-harboring cell lines were used, so all cell lines were maintained under G418 selection prior to the assay. In some cases the cell lines encoded a luciferase:NEO FUSION and could be assayed either directly by determination of RNA copy number, or indirectly through measurement of the luciferase activity.
To initiate an assay, replicon cells were plated in the presence of a dilution series of test compound in the absence of G418. Typically, the assays were performed in a 96-well plate format for manual operation, or a 384-well plate in an automated assay. Replicon cells and compound were incubated for 24 to 48 hours, depending on the assay. At the end of the assay, cells are washed free of media and compound and then lysed. For direct quantitation, RNA levels were measured by 32P-probe hybridization and protection, or in a TAQMAN-based assay and normalized to cellular cyclophilin A RNA levels. In some cases, luciferase activity was measured using a conventional luciferase assay. In all cases, EC50 determinations were calculated as a percent of a DMSO control by fitting the data to a four-parameter fit function.
For orientation: In antiviral work, replicon cells carry a viral genome segment that copies itself.

[3] abbreviates: 10% fetal bovine serum, read-out: gt 1b Replicon EC50 10% FBS.
[4] abbreviates: 50% normal human serum, read-out: gt 1b Replicon EC50 50% NHS.

The structures appear in SMILES notation. Read-outs that look alike come from different tables or passages of the source.

With `COc1ccc2nc3c(nc2c1)O[C@@H]1C[C@H]2C(=O)N[C@]4(C(=O)NS(=O)(=O)C5CC5)C[C@H]4/C=C\CCCCC[C@H](NC(=O)O[C@@H]4CCC[C@H]4CCCCC3)C(=O)N2C1` [Example 1, (3R,20R,24R,28S,34Z,36S,38R,41S)—N-(Cyclopropylsulfonyl)-9-methoxy-26,40,42-trioxo-4,25-dioxa-1,6,13,27,39-pentaazaheptacyclo[26.13.1.1^3,41.0^5,14.0^7,12.0^20,24,0^36,38]tritetraconta-5,7,9,11,13,34-hexaene-38-carboxamide], the Ki at NS3/4A protease gt 3a worked out at 0.45 nM; in data set [1], 1.6 nM; at NS3/4A protease gt 1b it was 0.16 nM. This compound showed a concentration at 4 h in data set [2] of 3.6 µM. The “Rat PK 5 mpk AUC” value in data set [2] is recorded as 0. Besides, the EC50 with HCV gt 1b replicon (setting [3]) turned out to be 2 nM; in the data set with HCV gt 1b replicon (setting [4]) it was 9 nM.

`COc1ccc2nc3c(nc2c1)O[C@@H]1C[C@H]2C(=O)N[C@]4(C(=O)NS(=O)(=O)C5(C)CC5)C[C@H]4/C=C\CCCCC[C@H](NC(=O)O[C@@H]4CCC[C@H]4CCCCC3)C(=O)N2C1` [Example 2, (3R,20R,24R,28S,34Z,36S,38R,41S)-9-Methoxy-N-[(1-methylcyclopropyl)sulfonyl]-26,40,42-trioxo-4,25-dioxa-1,6,13,27,39-pentaazaheptacyclo[26.13.1.1^3,41.0^5,14.0^7,12.0^20,24.0^36,38]tritetraconta-5,7,9,11,13,34-hexaene-38-carboxamide]: the Ki at NS3/4A protease gt 3a was determined as 0.48 nM; in data set [1], 1.1 nM; at NS3/4A protease gt 1b it was 0.05 nM. Also, the concentration at 4 h in data set [2] came out at 43 µM. In addition, in data set [2], the “Rat PK 5 mpk AUC” value is 0.55. In addition, the EC50 is 2 nM in the data set on HCV gt 1b replicon (setting [3]) and 10 nM with HCV gt 1b replicon (setting [4]).

On to `COc1ccc2nc3c(nc2c1)O[C@@H]1C[C@H]2C(=O)N[C@]4(C(=O)NS(=O)(=O)C5CC5)C[C@H]4/C=C\CCCCC[C@H](NC(=O)O[C@@H]4C[C@H]4CCCCC3)C(=O)N2C1` [Example 3, (3R,20R,22R,26S,32Z,34S,36R,39S)—N-(Cyclopropylsulfonyl)-9-methoxy-24,38,40-trioxo-4,23-dioxa-1,6,13,25,37-pentaazaheptacyclo[24.13.1.1^3,39.0^5,14.0^7,12.0^20,22.0^34,36]hentetraconta-5,7,9,11,13,32-hexaene-36-carboxamide], for which the Ki was determined as 0.24 nM at NS3/4A protease gt 3a, 0.8 nM in data set [1] and 0.02 nM at NS3/4A protease gt 1b. This compound returned a concentration at 4 h in data set [2] of 13 µM. Moreover, in data set [2], the “Rat PK 5 mpk AUC” value is listed as 0.19. Also, the EC50 was found to be 2 nM in the data set with HCV gt 1b replicon (setting [3]) and 8 nM in the data set on HCV gt 1b replicon (setting [4]).

With `COc1ccc2nc3c(nc2c1)O[C@@H]1C[C@H]2C(=O)N[C@]4(C(=O)NS(=O)(=O)C5(C)CC5)C[C@H]4/C=C\CCCCC[C@H](NC(=O)O[C@@H]4C[C@H]4CCCCC3)C(=O)N2C1` [Example 4, (3R,20R,22R,26S,32Z,34S,36R,39S)-9-Methoxy-N-[(1-methylcyclopropyl)sulfonyl]-24,38,40-trioxo-4,23-dioxa-1,6,13,25,37-pentaazaheptacyclo[24.13.1.1^3,39.0^5,14.0^7,12.0^20,22.0^34,36]hentetraconta-5,7,9,11,13,32-hexaene-36-carboxamide], the Ki on NS3/4A protease gt 3a turned out to be 0.27 nM; in data set [1] it was 0.6 nM; at NS3/4A protease gt 1b it was 0.04 nM. This compound also gave a concentration at 4 h in data set [2] of 19 µM. The “Rat PK 5 mpk AUC” value in data set [2] stood at 0.1. The EC50 with HCV gt 1b replicon (setting [3]) turned out to be 2 nM; in the data set with HCV gt 1b replicon (setting [4]) it was 4 nM.

As to `COc1ccc2nc3c(nc2c1)O[C@@H]1C[C@H]2C(=O)N[C@]4(C(=O)NS(=O)(=O)C5CC5)C[C@H]4/C=C\CCCCC[C@H](NC(=O)O[C@]4(C)C[C@H]4CCCCC3)C(=O)N2C1` [Example 5, (3R,20R,22R,26S,32Z,34S,36R,39S)—N-(Cyclopropylsulfonyl)-9-methoxy-22-methyl-24,38,40-trioxo-4,23-dioxa-1,6,13,25,37-pentaazaheptacyclo[24.13.1.1^3,39.0^5,14.0^7,12.0^20,22.0^34,36]hentetraconta-5,7,9,11,13,32-hexaene-36-carboxamide], the Ki stood at 0.25 nM at NS3/4A protease gt 3a, 0.7 nM in data set [1] and 0.02 nM on NS3/4A protease gt 1b. The compound further registered a concentration at 4 h in data set [2] of 20 µM. The “Rat PK 5 mpk AUC” value in data set [2] is reported as 0.18. The values for the EC50 with HCV gt 1b replicon (setting [3]) and in the data set on HCV gt 1b replicon (setting [4]) were 1 nM and 6 nM, respectively.

As usually defined, the Ki is the dissociation constant of the complex between target and ligand, obtained from inhibition or displacement. In general, EC50 refers to the concentration needed to bring the measured effect to its halfway point.
